Measurements as given in patent US20090048157A1, “USE OF ORGANIC COMPOUNDS” (priority 2004, published 2009).

Columns and labels:
Assay type in all cases: in vivo, human
[1] = test system: Serum CTX-I (bone resorption marker); assay: Serum CTX-I response to oral SCT in postmenopausal women, clinical trial; conditions: after the first dose, 0.15, 0.4, 1.0 or 2.5 mg, dose-dependent, compared with placebo
From the text: Serum CTX-I, or CrossLaps® (Nordic Bioscience Diagnostics A/S, cat. no. 4CRL4000) is an enzyme-immunoassay for quantitative assessment of bone resorption, and has been cleared by the FDA. It is based on two highly specific monoclonal antibodies against the amino acid sequence of EKAHD-β-GGR originating from the C-telopeptide of type I collagen. The aspartic acid residue (D) is β-isomerized. Standards, control, or unknown serum samples are pipetted into the appropriate microtitre wells coated with streptavidin, followed by application of a mixture of a biotinylated antibody and a peroxidase-conjugated antibody. […] Finally, the absorbance is measured.
(§1) The response of serum CTX-I and N-MID® Osteocalcin to SCT in postmenopausal women is examined in a multi-center, randomised, double-blind, placebo-controlled, dose-ranking clinical trial including 277 study participants aged 55-85 years (the study has been described in detail in Tank{acute over (0)} et al., J Bone Miner Res., in print). The study participants receives active treatment (daily doses of 0.15, 0.4, 1.0, or 2.5 mg or 1.0 mg every other day) or placebo for three months and serum CTX-I as well as N-MID® Osteocalcin are measured frequently during a 24-hours period before drug administration and after one and three months.

[2] = test system: N-MID Osteocalcin (bone formation marker); assay: N-MID Osteocalcin ELISA response to oral SCT in postmenopausal women, clinical trial; conditions: 0.15-2.5 mg daily or 1.0 mg every other day, compared with placebo
From the text: The N-MID® Osteocalcin ELISA (Nordic Bioscience Diagnostics A/S, cat. no. 3OSC4000) is an enzyme innuosorbent assay for quantitative assessment of bone formation, and has been cleared by the FDA. It is based upon the application of two highly specific monoclonal antibodies (Mabs) against human osteocalcin. An antibody recognizing the midregion (amino acids 20-29) is used as the capture antibody and for detection a peroxidase conjugated antibody recognizing the N-terminal region (amino acids 10-16) is used. In addition to intact osteocalcin (amino acid 1-49) the N-terminal-Mid fragment (amino acids 1-43) is also detected. […] Finally, the absorbance is measured.
as §1

[3] = test system: Serum CTX-I (bone resorption marker); assay: Serum CTX-I (CrossLaps) after single doses of oral or iv salmon calcitonin in male volunteers; conditions: eight male volunteers, oral and iv SCT
From the text: Serum CTX-I, or CrossLaps® (Nordic Bioscience Diagnostics A/S, cat. no. 4CRL4000) is an enzyme-immunoassay for quantitative assessment of bone resorption, and has been cleared by the FDA. It is based on two highly specific monoclonal antibodies against the amino acid sequence of EKAHD-β-GGR originating from the C-telopeptide of type I collagen. The aspartic acid residue (D) is β-isomerized. Standards, control, or unknown serum samples are pipetted into the appropriate microtitre wells coated with streptavidin, followed by application of a mixture of a biotinylated antibody and a peroxidase-conjugated antibody. Then, a complex between the CTX antigens, biotinylated antibody and peroxidase-conjugated antibody is generated, and this complex binds to the streptavidin surface via the biotinylated antibody. Following the one-step incubation at room temperature, the wells are emptied and washed. A chromogenic substrate is added and the colour reaction is stopped with sulfuric acid. Finally, the absorbance is measured.
The effect of oral salmon calcitonin (SCT) on the serum levels of CTX-I is investigated by randomising study participants (eight male volunteers) to receive three. single doses of SCT, a verum intravenous infusion of SCT or placebo in a five-period cross-over design (the study is described in detail in Buchlin et al., J Bone Miner Res., (2002); 17:1478-1485).

Question: Which results are given for salmon calcitonin [SCT]?
Answer: Serum CTX-I decrease from baseline [1]: −60.8 to −81.8%; Changes of N-MID Osteocalcin [2]: non-significant; Time to nadir of serum CTX-I post-treatment [3]: 2 to 4 h; Time to return of serum CTX-I to pre-treatment levels [3]: 24 h; Serum CTX-I: inhibition of bone resorption ([3]; cross-over vs placebo): marked dose-dependent inhibition of bone resorption
